# Assay results as given in patent US7741493B2, “Heterocyclic compounds as P2X7 ion channel blockers” (Aventis Pharmaceuticals Inc., priority 2003, dated 2010).
# Structures can show the parent of a compound that is named as a salt.
# Molecular target: T1, P2X7 (Homo sapiens, UniProt Q99572)
# T1 sequence (Q99572 1-595): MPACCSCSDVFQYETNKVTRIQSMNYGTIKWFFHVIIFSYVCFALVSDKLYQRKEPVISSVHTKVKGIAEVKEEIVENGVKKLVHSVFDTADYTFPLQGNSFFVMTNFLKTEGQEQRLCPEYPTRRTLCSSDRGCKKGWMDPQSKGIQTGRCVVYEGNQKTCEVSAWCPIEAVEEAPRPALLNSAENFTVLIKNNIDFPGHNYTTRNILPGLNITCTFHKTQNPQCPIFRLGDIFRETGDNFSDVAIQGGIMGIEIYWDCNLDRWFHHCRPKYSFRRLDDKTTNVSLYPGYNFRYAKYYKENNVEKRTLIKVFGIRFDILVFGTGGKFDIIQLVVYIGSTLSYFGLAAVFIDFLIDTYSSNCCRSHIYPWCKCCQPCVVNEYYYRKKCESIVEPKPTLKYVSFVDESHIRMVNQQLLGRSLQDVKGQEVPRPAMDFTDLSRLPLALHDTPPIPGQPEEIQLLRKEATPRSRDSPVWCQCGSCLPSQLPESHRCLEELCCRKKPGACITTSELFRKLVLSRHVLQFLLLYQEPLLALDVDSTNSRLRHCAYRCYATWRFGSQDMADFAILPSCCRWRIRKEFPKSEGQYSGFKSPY
# Experiment: YO-PRO-1 dye uptake assay in U373 cells stably expressing P2X7
# Format: cell-based
# Design: The complete open reading frame of human P2X7 was amplified from Incyte clone 148057; expressed in transfected cells
# Details: IC50 (nM), dye uptake through P2X7, U373 cells, 300 μM BzATP, 5 μM YO-PRO-1, test compounds 30 nM to 3 μM
# Method: Following a 24-hr exposure to DNA, cells were trypsinized and re-seeded at low density in the presence of […] G418. After incubation for 2 weeks, isolated clones were selected with cloning cylinders and replated in […] G418. Cell clones were then expanded. Clones were screened for P2X7 by applying ATP and recording the resultant current using patch clamp electrophysiology.
# U373 cells stably expressing P2X7 were used to screen drugs via a dye uptake assay. Cells were plated overnight on collagen coated 96-well plates at a density of 35,000 cells per well. The following day, culture media was replaced with Mg^++ and Ca^++-free Hank's balanced salt solution and various concentrations of test compounds ranging from 30 nM to 3 μM. Cells were then allowed to incubate with test compounds at 37° C. for 20 minutes. Following this incubation period YO-PRO-1 dye (Molecular Probes, Eugene, Oreg., final concentration 5 μM) and 2′-& 3′-O-(4-Benzolybenzoyl)-Adenosine 5′-triphosphate (Sigma Chemical, St Louis, Mo., final concentration 300 μM) were added to the cells sequentially. Cells were then incubated at 37° C. for 1.5 hours. […] Fluorescence in the presence of test substances was compared to that in the absence of test substances (control).
row,SMILES,IC50 [nM]
1,"c1ccc(CNCC2=N[C@@H](c3ccccc3)[C@@H](c3ccccc3)N2)cc1 [[(cis-4,5-Diphenyl-4,5-dihydro-1H-imidazol-2-yl)methyl]benzylamine ditrifluoroacetate]",318

# Same assay, conditions: dye uptake through P2X7, U373 cells, 300 μM BzATP, 5 μM YO-PRO-1, test compounds 30 nM to 3 μM; read-out: IC50
row,SMILES,IC50 [nM]
1,"Fc1ccc(CSC2=N[C@@H](c3ccccc3)[C@@H](c3ccccc3)N2)cc1F [2-[(3,4-Difluorobenzyl)thio]-cis-4,5-diphenyl-4,5-dihydro-1H-imidazole hydrochloride]",461
2,"Fc1cccc(COCC2=N[C@@H](c3ccccc3)[C@@H](c3ccccc3)N2)c1 [2-[(3-Fluorobenzyloxy)methyl]-cis-4,5-diphenyl-4,5-dihydro-1H-imidazole hydrochloride]",274
3,"Fc1cccc(OCC2=N[C@@H](c3cccc(F)c3)[C@@H](c3cccc(F)c3)N2)c1 [2-[(3-Fluorophenoxy)methyl]-cis-4,5-bis-(3-fluorophenyl)-4,5-dihydro-1H-imidazole]",316
4,"Fc1cccc(OCC2=N[C@@H](c3ccccc3)[C@@H](c3ccccc3)N2)c1 [2-[(3-Fluorophenoxy)methyl]-cis-4,5-diphenyl-4,5-dihydro-1H-imidazole trifluoroacetate]",224
5,"COc1cccc(CSC2=N[C@@H](c3ccccc3)[C@@H](c3ccccc3)N2)c1 [2-[(3-Methoxybenzyl)thio]-cis-4,5-diphenyl-4,5-dihydro-1H-imidazole hydrochloride]",987
6,"Cc1cccc(COCC2=N[C@@H](c3ccccc3)[C@@H](c3ccccc3)N2)c1 [2-[(3-Methylbenzyloxy)methyl]-cis-4,5-diphenyl-4,5-dihydro-1H-imidazole hydrochloride]",415
7,"Fc1ccc(OCC2=N[C@@H](c3cccc(F)c3)[C@@H](c3cccc(F)c3)N2)cc1 [2-[(4-Fluorophenoxy)methyl]-cis-4,5-bis-(3-fluorophenyl)-4,5-dihydro-1H-imidazole]",346
8,"Fc1ccc(OCC2=N[C@@H](c3ccccc3)[C@@H](c3ccccc3)N2)cc1 [2-[(4-Fluorophenoxy)methyl]-cis-4,5-diphenyl-4,5-dihydro-1H-imidazole trifluoroacetate]",401
9,"c1ccc(CSCC2=N[C@@H](c3ccccc3)[C@@H](c3ccccc3)N2)cc1 [2-[(Benzylsulfanyl)methyl]-cis-4,5-diphenyl-4,5-dihydro-1H-imidazole trifluoroacetate]",583
10,"c1ccc([C@H]2NC(COC3CCCCCC3)=N[C@H]2c2ccccc2)cc1 [2-[(Cycloheptyloxy)methyl]-cis-4,5-diphenyl-4,5-dihydro-1H-imidazole trifluoroacetate]",603
11,"c1ccc([C@H]2NC(COC3CCCCC3)=N[C@H]2c2ccccc2)cc1 [2-[(Cyclohexyloxy)methyl]-cis-4,5-diphenyl-4,5-dihydro-1H-imidazole trifluoroacetate]",315
12,"c1ccc([C@H]2NC(COC3CCCCCCC3)=N[C@H]2c2ccccc2)cc1 [2-[(Cyclooctyloxy)methyl]-cis-4,5-diphenyl-4,5-dihydro-1H-imidazole trifluoroacetate]",506
13,"c1ccc(SCC2=N[C@@H](c3ccccc3)[C@@H](c3ccccc3)N2)cc1 [2-[(Phenylsulfanyl)methyl]-cis-4,5-diphenyl-4,5-dihydro-1H-imidazole trifluoroacetate]",198
14,"c1ccc(C2N=C(C3Cc4ccccc4C3)NC2c2ccccc2)cc1 (stereo not shown) [2-indan-2-yl-4,5-diphenyl-4,5-dihydro-1H-imidazole trifluoroacetate]",50
15,"c1ccc([C@H]2NC(CC3Cc4ccccc4C3)=N[C@H]2c2ccccc2)cc1 [2-indan-2-ylmethyl-cis-4,5-diphenyl-4,5-dihydro-1H-imidazole trifluoroacetate]",240
16,"Fc1cc(CNC2=N[C@@H](c3ccccc3)[C@@H](c3ccccc3)N2)cc(F)c1F [(cis-4,5-Diphenyl-4,5-dihydro-1H-imidazol-2-yl)-(3,4,5-trifluorobenzyl)amine hydrochloride]",77
17,"Fc1cc(F)cc(CNC2=N[C@@H](c3ccccc3)[C@@H](c3ccccc3)N2)c1 [(cis-4,5-Diphenyl-4,5-dihydro-1H-imidazol-2-yl)-(3,5-difluorobenzyl)amine hydrochloride]",102

row,SMILES,IC50 [nM]
1,"Fc1cccc(CNC2=N[C@@H](c3ccccc3)[C@@H](c3ccccc3)N2)c1 [(cis-4,5-Diphenyl-4,5-dihydro-1H-imidazol-2-yl)-(3-fluorobenzyl)amine hydrochloride]",89
2,"Fc1ccc(CNC2=N[C@@H](c3ccccc3)[C@@H](c3ccccc3)N2)cc1 [(cis-4,5-Diphenyl-4,5-dihydro-1H-imidazol-2-yl)-(4-fluorobenzyl)amine hydrochloride]",96
3,"c1ccc([C@H]2NC(NCC3CCCCC3)=N[C@H]2c2ccccc2)cc1 [(cis-4,5-Diphenyl-4,5-dihydro-1H-imidazol-2-yl)-(cyclohexylmethyl)amine hydrochloride]",124
4,"CN(Cc1ccccc1)C1=N[C@@H](c2ccccc2)[C@@H](c2ccccc2)N1 [(cis-4,5-Diphenyl-4,5-dihydro-1H-imidazol-2-yl)-N-methylbenzylamine hydrochloride]",147
5,"Fc1ccccc1CCNC1=N[C@@H](c2ccccc2)[C@@H](c2ccccc2)N1 [(cis-4,5-Diphenyl-4,5-dihydro-1H-imidazol-2-yl)-[2-(2-fluorophenyl)ethyl]amine hydrochloride]",87
6,"Fc1ccc(CNC2=N[C@@H](c3ccccc3F)[C@@H](c3ccccc3F)N2)cc1 [(cis-4,5-bis-(2-Fluorophenyl)-4,5-dihydro-1H-imidazol-2-yl)-(4-fluorobenzyl)amine hydrochloride]",390
7,"Fc1ccccc1[C@H]1NC(NCc2ccccc2)=N[C@H]1c1ccccc1F [(cis-4,5-bis-(2-Fluorophenyl)-4,5-dihydro-1H-imidazol-2-yl)-benzylamine hydrochloride]",531
8,"Fc1cccc(CNC2=N[C@@H](c3ccccc3Br)[C@@H](c3ccccc3Br)N2)c1 [[cis-4,5-bis-(2-Bromophenyl)-4,5-dihydro-1H-imidazol-2-yl]-(3-fluorobenzyl)amine hydrochloride]",782
9,"Fc1ccc(CNC2=N[C@@H](c3ccccc3Br)[C@@H](c3ccccc3Br)N2)cc1 [[cis-4,5-bis-(2-Bromophenyl)-4,5-dihydro-1H-imidazol-2-yl]-(4-fluorobenzyl)amine hydrochloride]",898
10,"Fc1ccc(CNC2=N[C@@H](c3ccccc3Cl)[C@@H](c3ccccc3Cl)N2)cc1F [[cis-4,5-bis-(2-Chlorophenyl)-4,5-dihydro-1H-imidazol-2-yl]-(3,4-difluorobenzyl)-amine hydrochloride]",378
11,"Fc1cccc(CNC2=N[C@@H](c3ccccc3Cl)[C@@H](c3ccccc3Cl)N2)c1 [[cis-4,5-bis-(2-Chlorophenyl)-4,5-dihydro-1H-imidazol-2-yl]-(3-fluorobenzyl)amine hydrochloride]",592
12,"Fc1ccc(CNC2=N[C@@H](c3ccccc3Cl)[C@@H](c3ccccc3Cl)N2)cc1 [[cis-4,5-bis-(2-Chlorophenyl)-4,5-dihydro-1H-imidazol-2-yl]-(4-fluorobenzyl)amine hydrochloride]",624
13,"Clc1ccccc1[C@H]1NC(NCc2ccccc2)=N[C@H]1c1ccccc1Cl [[cis-4,5-bis-(2-Chlorophenyl)-4,5-dihydro-1H-imidazol-2-yl]-benzylamine hydrochloride]",925
14,"Fc1ccc(CNC2=N[C@@H](c3ccccc3F)[C@@H](c3ccccc3F)N2)cc1F [[cis-4,5-bis-(2-Fluorophenyl)-4,5-dihydro-1H-imidazol-2-yl]-(3,4-difluorobenzyl)-amine hydrochloride]",312
15,"Cc1cccc(CNC2=N[C@@H](c3ccccc3F)[C@@H](c3ccccc3F)N2)c1 [[cis-4,5-bis-(2-Fluorophenyl)-4,5-dihydro-1H-imidazol-2-yl]-(3-methylbenzyl)amine hydrochloride]",379
16,"Cc1ccccc1[C@H]1NC(NCc2ccc(F)c(F)c2)=N[C@H]1c1ccccc1C [[cis-4,5-bis-(2-Methylphenyl)-4,5-dihydro-1H-imidazol-2-yl]-(3,4-difluorobenzyl)-amine hydrochloride]",77
